Assay results published in PubChem BioAssay AID1963428 (Molecular Pharmacology Branch, DTP, NCI, 2024).

System: 171881-019-R-J1-PDC complex spheroid growth, % test/control
Test: Anticancer human tumor 171881-019-R-J1-PDC patient-derived invasive breast carcinoma cell line growth inhibition [Asc]
Settings: for IC50: curve of first compound; for viability, T/C: stronger effect = lower value
Method in brief: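 Concentration series start at each agent's clinical Cmax, or at 10 microM when none is established, and drop in half-log steps; agents are applied alone or together to complex spheroids built with HUVEC and hMSC.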

[1] = second compound 0.01 µM, first compound 0.00316 µM
[2] = second compound 0.01 µM, first compound 0.01 µM
[3] = second compound 0.01 µM, first compound 0.0316 µM
[4] = second compound 0.01 µM, first compound 0.1 µM
[5] = second compound 0.0316 µM, first compound 0.00316 µM
[6] = second compound 0.0316 µM, first compound 0.01 µM
[7] = second compound 0.0316 µM, first compound 0.0316 µM
[8] = second compound 0.0316 µM, first compound 0.1 µM
[9] = second compound 0.1 µM, first compound 0.00316 µM
[10] = second compound 0.1 µM, first compound 0.01 µM
[11] = second compound 0.1 µM, first compound 0.0316 µM
[12] = second compound 0.1 µM, first compound 0.1 µM
[13] = second compound 0.316 µM, first compound 0.00316 µM
[14] = second compound 0.316 µM, first compound 0.01 µM
[15] = second compound 0.316 µM, first compound 0.0316 µM
[16] = second compound 0.316 µM, first compound 0.1 µM
[17] = second compound 1 µM, first compound 0.00316 µM
[18] = second compound 1 µM, first compound 0.01 µM
[19] = second compound 1 µM, first compound 0.0316 µM
[20] = second compound 1 µM, first compound 0.1 µM
[21] = second compound 0.01 µM, first compound 0.316 µM
[22] = second compound 0.01 µM, first compound 1 µM
[23] = second compound 0.0316 µM, first compound 0.316 µM
[24] = second compound 0.0316 µM, first compound 1 µM
[25] = second compound 0.1 µM, first compound 0.316 µM
[26] = second compound 0.1 µM, first compound 1 µM
[27] = second compound 0.316 µM, first compound 0.316 µM
[28] = second compound 0.316 µM, first compound 1 µM
[29] = second compound 1 µM, first compound 0.316 µM
[30] = second compound 1 µM, first compound 1 µM
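Throughout, for viability, T/C: spheroids exposed to compounds for 7 days.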

SMILES: Cc1nc(N2CCC3(CC2)COC(C)C3N)c(CO)nc1Sc1ccnc(N)c1Cl (stereo not given) + CCN1C(C(=O)NC23CCC(C(=O)O)(CC2)CC3)C(c2cccc(Cl)c2F)C2(C(=O)Nc3cc(Cl)ccc32)C12CCCCC2
- IC50 (second compound 0.03 µM): > 3 µM
- IC50 (second compound 0.0949 µM): > 3 µM
- IC50 (second compound 0.3 µM): > 3 µM
- IC50 (second compound 0.949 µM): > 3 µM
- IC50 (second compound 3 µM): > 3 µM
- viability, T/C (second compound 0.03 µM, first compound 0.00949 µM): 87.3%
- viability, T/C (second compound 0.03 µM, first compound 0.03 µM): 101%
- viability, T/C (second compound 0.03 µM, first compound 0.0949 µM): 153%
- viability, T/C (second compound 0.03 µM, first compound 0.3 µM): 152%
- viability, T/C (second compound 0.03 µM, first compound 0.949 µM): 126%
- viability, T/C (second compound 0.03 µM, first compound 3 µM): 109%
- viability, T/C (second compound 0.0949 µM, first compound 0.00949 µM): 80.7%
- viability, T/C (second compound 0.0949 µM, first compound 0.03 µM): 99.1%
- viability, T/C (second compound 0.0949 µM, first compound 0.0949 µM): 165%
- viability, T/C (second compound 0.0949 µM, first compound 0.3 µM): 178%
- viability, T/C (second compound 0.0949 µM, first compound 0.949 µM): 121%
- viability, T/C (second compound 0.0949 µM, first compound 3 µM): 114%
- viability, T/C (second compound 0.3 µM, first compound 0.00949 µM): 112%
- viability, T/C (second compound 0.3 µM, first compound 0.03 µM): 109%
- viability, T/C (second compound 0.3 µM, first compound 0.0949 µM): 158%
- viability, T/C (second compound 0.3 µM, first compound 0.3 µM): 171%
- viability, T/C (second compound 0.3 µM, first compound 0.949 µM): 141%
- viability, T/C (second compound 0.3 µM, first compound 3 µM): 103%
- viability, T/C (second compound 0.949 µM, first compound 0.00949 µM): 90.8%
- viability, T/C (second compound 0.949 µM, first compound 0.03 µM): 105%
- viability, T/C (second compound 0.949 µM, first compound 0.0949 µM): 134%
- viability, T/C (second compound 0.949 µM, first compound 0.3 µM): 184%
- viability, T/C (second compound 0.949 µM, first compound 0.949 µM): 134%
- viability, T/C (second compound 0.949 µM, first compound 3 µM): 95.2%
- viability, T/C (second compound 3 µM, first compound 0.00949 µM): 109%
- viability, T/C (second compound 3 µM, first compound 0.03 µM): 127%
- viability, T/C (second compound 3 µM, first compound 0.0949 µM): 175%
- viability, T/C (second compound 3 µM, first compound 0.3 µM): 166%
- viability, T/C (second compound 3 µM, first compound 0.949 µM): 122%
- viability, T/C (second compound 3 µM, first compound 3 µM): 105%

SMILES: Cn1ncnc1[C@H]1c2n[nH]c(=O)c3cc(F)cc(c23)N[C@@H]1c1ccc(F)cc1 + CNC(C)C(=O)NC1CN(S(=O)(=O)c2cccc(S(=O)(=O)N3CCC4CCC(C(=O)NC(c5ccccc5)c5ccccc5)N4C(=O)C(NC(=O)C(C)NC)C3)c2)CCC2CCC(C(=O)NC(c3ccccc3)c3ccccc3)N2C1=O
- IC50 (second compound 0.01 µM): > 0.1 µM
- IC50 (second compound 0.0316 µM): > 0.1 µM
- IC50 (second compound 0.1 µM): > 0.1 µM
- IC50 (second compound 0.316 µM): > 0.1 µM
- IC50 (second compound 1 µM): > 0.1 µM
- viability, T/C (second compound 0.01 µM, first compound 0.000316 µM): 78.9%
- viability, T/C (second compound 0.01 µM, first compound 0.001 µM): 91.9%
- viability, T/C [1]: 95.9%
- viability, T/C [2]: 101%
- viability, T/C [3]: 89.3%
- viability, T/C [4]: 95.2%
- viability, T/C (second compound 0.0316 µM, first compound 0.000316 µM): 103%
- viability, T/C (second compound 0.0316 µM, first compound 0.001 µM): 98.5%
- viability, T/C [5]: 94.8%
- viability, T/C [6]: 104%
- viability, T/C [7]: 104%
- viability, T/C [8]: 92.4%
- viability, T/C (second compound 0.1 µM, first compound 0.000316 µM): 95.3%
- viability, T/C (second compound 0.1 µM, first compound 0.001 µM): 97.1%
- viability, T/C [9]: 101%
- viability, T/C [10]: 100%
- viability, T/C [11]: 96%
- viability, T/C [12]: 89%
- viability, T/C (second compound 0.316 µM, first compound 0.000316 µM): 94.2%
- viability, T/C (second compound 0.316 µM, first compound 0.001 µM): 97.4%
- viability, T/C [13]: 94.8%
- viability, T/C [14]: 95.3%
- viability, T/C [15]: 97.8%
- viability, T/C [16]: 90.7%
- viability, T/C (second compound 1 µM, first compound 0.000316 µM): 85%
- viability, T/C (second compound 1 µM, first compound 0.001 µM): 98.5%
- viability, T/C [17]: 93.3%
- viability, T/C [18]: 83.8%
- viability, T/C [19]: 107%
- viability, T/C [20]: 85.5%

SMILES: O=C(c1cc(Cc2n[nH]c(=O)c3ccccc23)ccc1F)N1CCN(C(=O)C2CC2)CC1 + CNC(C)C(=O)NC1CN(S(=O)(=O)c2cccc(S(=O)(=O)N3CCC4CCC(C(=O)NC(c5ccccc5)c5ccccc5)N4C(=O)C(NC(=O)C(C)NC)C3)c2)CCC2CCC(C(=O)NC(c3ccccc3)c3ccccc3)N2C1=O
- IC50 (second compound 0.01 µM): > 10 µM
- IC50 (second compound 0.0316 µM): > 10 µM
- IC50 (second compound 0.1 µM): > 10 µM
- IC50 (second compound 0.316 µM): > 10 µM
- IC50 (second compound 1 µM): > 10 µM
- viability, T/C [3]: 101%
- viability, T/C [4]: 107%
- viability, T/C [21]: 109%
- viability, T/C [22]: 118%
- viability, T/C (second compound 0.01 µM, first compound 3.16 µM): 104%
- viability, T/C (second compound 0.01 µM, first compound 10 µM): 128%
- viability, T/C [7]: 100%
- viability, T/C [8]: 105%
- viability, T/C [23]: 93.3%
- viability, T/C [24]: 128%
- viability, T/C (second compound 0.0316 µM, first compound 3.16 µM): 107%
- viability, T/C (second compound 0.0316 µM, first compound 10 µM): 106%
- viability, T/C [11]: 108%
- viability, T/C [12]: 89.4%
- viability, T/C [25]: 106%
- viability, T/C [26]: 104%
- viability, T/C (second compound 0.1 µM, first compound 3.16 µM): 105%
- viability, T/C (second compound 0.1 µM, first compound 10 µM): 112%
- viability, T/C [15]: 95%
- viability, T/C [16]: 96.2%
- viability, T/C [27]: 99.7%
- viability, T/C [28]: 119%
- viability, T/C (second compound 0.316 µM, first compound 3.16 µM): 114%
- viability, T/C (second compound 0.316 µM, first compound 10 µM): 122%
- viability, T/C [19]: 116%
- viability, T/C [20]: 113%
- viability, T/C [29]: 89.4%
- viability, T/C [30]: 111%
- viability, T/C (second compound 1 µM, first compound 3.16 µM): 103%
- viability, T/C (second compound 1 µM, first compound 10 µM): 128%

SMILES: O=C(c1ccc(F)c(F)c1Nc1ccc(I)cc1F)N1CC(O)([C@@H]2CCCCN2)C1 + CNC(C)C(=O)NC1CN(S(=O)(=O)c2cccc(S(=O)(=O)N3CCC4CCC(C(=O)NC(c5ccccc5)c5ccccc5)N4C(=O)C(NC(=O)C(C)NC)C3)c2)CCC2CCC(C(=O)NC(c3ccccc3)c3ccccc3)N2C1=O
- IC50 (second compound 0.01 µM): > 1 µM
- IC50 (second compound 0.0316 µM): 0.747 µM
- IC50 (second compound 0.1 µM): 0.635 µM
- IC50 (second compound 0.316 µM): 0.519 µM
- IC50 (second compound 1 µM): 0.408 µM
- viability, T/C [1]: 98.1%
- viability, T/C [2]: 103%
- viability, T/C [3]: 125%
- viability, T/C [4]: 202%
- viability, T/C [21]: 96.9%
- viability, T/C [22]: 44.9%
- viability, T/C [5]: 93.8%
- viability, T/C [6]: 98.2%
- viability, T/C [7]: 133%
- viability, T/C [8]: 203%
- viability, T/C [23]: 86.4%
- viability, T/C [24]: 37.6%
- viability, T/C [9]: 84.7%
- viability, T/C [10]: 91.3%
- viability, T/C [11]: 148%
- viability, T/C [12]: 191%
- viability, T/C [25]: 80%
- viability, T/C [26]: 30.5%
- viability, T/C [13]: 115%
- viability, T/C [14]: 111%
- viability, T/C [15]: 145%
- viability, T/C [16]: 179%
- viability, T/C [27]: 68.2%
- viability, T/C [28]: 25.7%
- viability, T/C [17]: 92.5%
- viability, T/C [18]: 110%
- viability, T/C [19]: 121%
- viability, T/C [20]: 158%
- viability, T/C [29]: 58.1%
- viability, T/C [30]: 21.4%
